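1) Cells in 96-well plates. 2) Compound, 48 h, 5 concentrations. 3) Linear interpolation between surrounding doses. 4) Unreached endpoint = highest concentration. At the TGI there is no net growth.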
Experiments:
Assay in all cases: inhibition of tumour cell growth, NCI panel, 48 h
OVCAR-8 ovarian = tested on: OVCAR-8 ovarian
SN12C renal = tested on: SN12C renal
786-0 renal = tested on: 786-0 renal
PC-3 prostate = tested on: PC-3 prostate
MDA-MB-435 = tested on: MDA-MB-435
NCI-H460 lung = tested on: NCI-H460 lung
HS 578T breast = tested on: HS 578T breast
IGROV1 ovarian = tested on: IGROV1 ovarian
ACHN renal = tested on: ACHN renal
KM12 colon = tested on: KM12 colon
MDA-N = tested on: MDA-N
SNB-19 CNS = tested on: SNB-19 CNS
HT29 colon = tested on: HT29 colon
OVCAR-4 ovarian = tested on: OVCAR-4 ovarian
CAKI-1 renal = tested on: CAKI-1 renal
NCI-H23 lung = tested on: NCI-H23 lung
OVCAR-5 ovarian = tested on: OVCAR-5 ovarian
MOLT-4 leukemia = tested on: MOLT-4 leukemia
MDA-MB-231 breast = tested on: MDA-MB-231 breast
NCI-H522 lung = tested on: NCI-H522 lung
HCT-15 colon = tested on: HCT-15 colon
SW-620 colon = tested on: SW-620 colon
NCI-H226 lung = tested on: NCI-H226 lung
RPMI-8226 leukemia = tested on: RPMI-8226 leukemia
SF-295 CNS = tested on: SF-295 CNS
K-562 leukemia = tested on: K-562 leukemia
TK-10 renal = tested on: TK-10 renal
HOP-62 NSCLC = tested on: HOP-62 NSCLC
HL-60(TB) leukemia = tested on: HL-60(TB) leukemia
SNB-75 CNS = tested on: SNB-75 CNS
HCT-116 colon = tested on: HCT-116 colon
HCC-2998 colon = tested on: HCC-2998 colon
SK-OV-3 ovarian = tested on: SK-OV-3 ovarian
M14 melanoma = tested on: M14 melanoma
UACC-62 melanoma = tested on: UACC-62 melanoma
EKVX NSCLC = tested on: EKVX NSCLC
MCF7 breast = tested on: MCF7 breast
SF-539 CNS = tested on: SF-539 CNS
SF-268 CNS = tested on: SF-268 CNS
DU-145 prostate = tested on: DU-145 prostate
UACC-257 melanoma = tested on: UACC-257 melanoma
A498 renal = tested on: A498 renal
NCI/ADR-RES ovarian = tested on: NCI/ADR-RES ovarian
RXF 393 renal = tested on: RXF 393 renal
SK-MEL-2 melanoma = tested on: SK-MEL-2 melanoma
T-47D breast = tested on: T-47D breast
U251 CNS = tested on: U251 CNS
LOX IMVI melanoma = tested on: LOX IMVI melanoma
MALME-3M melanoma = tested on: MALME-3M melanoma
COLO 205 colon = tested on: COLO 205 colon
A549 NSCLC = tested on: A549 NSCLC
SK-MEL-28 melanoma = tested on: SK-MEL-28 melanoma
CCRF-CEM leukemia = tested on: CCRF-CEM leukemia
OVCAR-3 ovarian = tested on: OVCAR-3 ovarian
SK-MEL-5 melanoma = tested on: SK-MEL-5 melanoma
HOP-92 NSCLC = tested on: HOP-92 NSCLC
UO-31 renal = tested on: UO-31 renal
BT-549 breast = tested on: BT-549 breast

Structure (SMILES): Cc1ccccc1N=C(N)Nc1ccccc1C
- TGI (OVCAR-8 ovarian): > 100 µM
- TGI (SN12C renal): > 100 µM
- TGI (786-0 renal): > 100 µM
- TGI (PC-3 prostate): > 100 µM
- TGI (MDA-MB-435): > 100 µM
- TGI (NCI-H460 lung): > 100 µM
- TGI (HS 578T breast): > 100 µM
- TGI (IGROV1 ovarian): > 100 µM
- TGI (ACHN renal): > 100 µM
- TGI (KM12 colon): > 100 µM
- TGI (MDA-N): > 100 µM
- TGI (SNB-19 CNS): > 100 µM
- TGI (HT29 colon): > 100 µM
- TGI (OVCAR-4 ovarian): > 100 µM
- TGI (CAKI-1 renal): > 100 µM
- TGI (NCI-H23 lung): > 100 µM
- TGI (OVCAR-5 ovarian): > 100 µM
- TGI (MOLT-4 leukemia): > 100 µM
- TGI (MDA-MB-231 breast): > 100 µM
- TGI (NCI-H522 lung): > 100 µM
- TGI (HCT-15 colon): > 100 µM
- TGI (SW-620 colon): > 100 µM
- TGI (NCI-H226 lung): > 100 µM
- TGI (RPMI-8226 leukemia): > 100 µM
- TGI (SF-295 CNS): > 100 µM
- TGI (K-562 leukemia): > 100 µM
- TGI (TK-10 renal): > 100 µM
- TGI (HOP-62 NSCLC): > 100 µM
- TGI (HL-60(TB) leukemia): > 100 µM
- TGI (SNB-75 CNS): > 100 µM
- TGI (HCT-116 colon): > 100 µM
- TGI (HCC-2998 colon): 62.1 µM
- TGI (SK-OV-3 ovarian): > 100 µM
- TGI (M14 melanoma): > 100 µM
- TGI (UACC-62 melanoma): > 100 µM
- TGI (EKVX NSCLC): > 100 µM
- TGI (MCF7 breast): > 100 µM
- TGI (SF-539 CNS): > 100 µM
- TGI (SF-268 CNS): > 100 µM
- TGI (DU-145 prostate): > 100 µM
- TGI (UACC-257 melanoma): > 100 µM
- TGI (A498 renal): > 100 µM
- TGI (NCI/ADR-RES ovarian): > 100 µM
- TGI (RXF 393 renal): > 100 µM
- TGI (SK-MEL-2 melanoma): > 100 µM
- TGI (T-47D breast): > 100 µM
- TGI (U251 CNS): > 100 µM
- TGI (LOX IMVI melanoma): > 100 µM
- TGI (MALME-3M melanoma): > 100 µM
- TGI (COLO 205 colon): > 100 µM
- TGI (A549 NSCLC): > 100 µM
- TGI (SK-MEL-28 melanoma): > 100 µM
- TGI (CCRF-CEM leukemia): > 100 µM
- TGI (OVCAR-3 ovarian): > 100 µM
- TGI (SK-MEL-5 melanoma): > 100 µM

Structure (SMILES): CCOP(=O)(O)CN1CCNCCN(CP(=O)(O)OCC)CCNCC1
- TGI (OVCAR-8 ovarian): > 100 µM
- TGI (SN12C renal): > 100 µM
- TGI (786-0 renal): > 100 µM
- TGI (PC-3 prostate): > 100 µM
- TGI (MDA-MB-435): > 100 µM
- TGI (HOP-92 NSCLC): > 100 µM
- TGI (NCI-H460 lung): > 100 µM
- TGI (HS 578T breast): > 100 µM
- TGI (IGROV1 ovarian): > 100 µM
- TGI (ACHN renal): > 100 µM
- TGI (KM12 colon): > 100 µM
- TGI (MDA-N): > 100 µM
- TGI (SNB-19 CNS): > 100 µM
- TGI (HT29 colon): > 100 µM
- TGI (OVCAR-4 ovarian): > 100 µM
- TGI (CAKI-1 renal): > 100 µM
- TGI (OVCAR-5 ovarian): > 100 µM
- TGI (MOLT-4 leukemia): > 100 µM
- TGI (MDA-MB-231 breast): > 100 µM
- TGI (NCI-H522 lung): > 100 µM
- TGI (HCT-15 colon): > 100 µM
- TGI (SW-620 colon): > 100 µM
- TGI (NCI-H226 lung): > 100 µM
- TGI (RPMI-8226 leukemia): > 100 µM
- TGI (SF-295 CNS): > 100 µM
- TGI (K-562 leukemia): > 100 µM
- TGI (TK-10 renal): > 100 µM
- TGI (HOP-62 NSCLC): > 100 µM
- TGI (HL-60(TB) leukemia): > 100 µM
- TGI (SNB-75 CNS): > 100 µM
- TGI (HCT-116 colon): > 100 µM
- TGI (SK-OV-3 ovarian): > 100 µM
- TGI (UACC-62 melanoma): > 100 µM
- TGI (EKVX NSCLC): > 100 µM
- TGI (MCF7 breast): > 100 µM
- TGI (SF-539 CNS): > 100 µM
- TGI (DU-145 prostate): > 100 µM
- TGI (UACC-257 melanoma): > 100 µM
- TGI (A498 renal): > 100 µM
- TGI (NCI/ADR-RES ovarian): > 100 µM
- TGI (RXF 393 renal): > 100 µM
- TGI (SK-MEL-2 melanoma): > 100 µM
- TGI (T-47D breast): > 100 µM
- TGI (U251 CNS): > 100 µM
- TGI (LOX IMVI melanoma): > 100 µM
- TGI (UO-31 renal): > 100 µM
- TGI (BT-549 breast): > 100 µM
- TGI (COLO 205 colon): > 100 µM
- TGI (A549 NSCLC): > 100 µM
- TGI (SK-MEL-28 melanoma): > 100 µM
- TGI (CCRF-CEM leukemia): > 100 µM
- TGI (OVCAR-3 ovarian): > 100 µM
- TGI (SK-MEL-5 melanoma): > 100 µM
